Source: ChEMBL document CHEMBL1143697, “Lemnalosides A-D, decalin-type bicyclic diterpene glycosides from the marine soft coral Lemnalia sp” (2007)
Calls of active or inactive are those of the source. The calls are words filed in the database; no cut-off is given here.

What was measured:
[1] = tested on: Streptomyces; assay: microbe, parasite or virus in culture; format: functional; conditions: 85E, read-out: IZ
Description: Growth inhibition of Streptomyces 85E at 20 ug/disk by hyphae formation inhibition assay

[2] = tested on: Streptomyces; assay: microbe, parasite or virus in culture; conditions: 85E, read-out: IZ
Description: Growth inhibition of Streptomyces 85E assessed as induction of bald phenotype effect at 5 ug/disk by hyphae formation inhibition assay

[3] = tested on: Streptomyces; assay: Growth inhibition of Streptomyces 85E by hyphae formation inhibition assay; format: functional, organism-based
[4] = tested on: Streptomyces; assay: Growth inhibition of Streptomyces 85E at 10 ug/disk by hyphae formation inhibition assay; format: functional, organism-based
[5] = tested on: Streptomyces; assay: Growth inhibition of Streptomyces 85E at 2.5 ug/disk by hyphae formation inhibition assay; format: functional, organism-based

SMILES	zone of inhibition at 20 µg/disc [1] [mm]	Activity [4]	other results
N#CC(=C(/N)Sc1ccccc1N)/C(C#N)=C(\N)Sc1ccccc1N	15		zone of inhibition at 5 µg/disc [2]: 15 mm
C=C(C)C(CC[C@@H](C)[C@@H]1CC[C@](C)(O[C@@H]2O[C@H](COC(C)=O)[C@H](O)[C@H](O)[C@H]2O)[C@H]2CCC(C)=C[C@@H]12)OO (stereo not given in full)			Activity [3]: inactive
CC1=C[C@H]2[C@H]([C@H](C)CCC[C@@H](C)C3OC[C@H]4O[C@@H](O3)[C@H](O)[C@@H](O)[C@@H]4O)CC=C(C)[C@H]2CC1 (stereo not given in full) [LEMNABOURSIDE]	10	inactive	
CC(=O)OC[C@H]1O[C@@H](O[C@@]2(C)CC[C@@H]([C@H](C)CCC=C(C)C)[C@@H]3C=C(C)CC[C@@H]32)[C@H](O)[C@@H](O)[C@H]1O [LEMNALOSIDE A]	11	inactive	
CC(=O)O[C@H]1[C@@H](O)[C@@H](CO)O[C@@H](O[C@@]2(C)CC[C@@H]([C@H](C)CCC=C(C)C)[C@@H]3C=C(C)CC[C@@H]32)[C@@H]1O [LEMNALOSIDE B]	18		Activity [5]: Active
CO[C@@]12[C@H](COC(N)=O)C3=C(C(=O)C(C)=C(N)C3=O)N1C[C@@H]1N[C@@H]12 [MITOMYCIN]	30		
